Laboratory results: patent US9115143B2, “Substituted indole derivatives as gamma secretase modulators” (Janssen Pharmaceuticals, Inc., priority 2011, dated 2015)

What was measured:
Aβ42 = experiment: Screening for γ-secretase-modulating activity: Aβ42 in supernatant of SKNBE2 cells carrying hAPP 695 wild type (Alphalisa); type: cell-based, human; conditions: overnight incubation, Alphalisa on supernatant
Outline: (§1)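 SKNBE2 human neuroblastoma cells expressing wild-type hAPP 695 (10^4/well) were incubated overnight at 37 °C, 5% CO2 with compound at several concentrations. Supernatant Aβ42 and Aβtotal measured by AlphaLISA sandwich immunoassays; IC50 from 4-parameter fit of percent of untreated control versus log concentration.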

Aβtotal = experiment: Screening for γ-secretase-modulating activity: Aβtotal in supernatant of SKNBE2 cells carrying hAPP 695 wild type (Alphalisa); type: cell-based, human; conditions: overnight incubation, Alphalisa on supernatant
Outline: as §1

[1] = SKNBE2 human neuroblastoma cells carrying hAPP 695 wild type
[2] = Homo sapiens, SKNBE2, SKNBE2 human neuroblastoma cells carrying hAPP 695 wild type

| SMILES | IC50 (Aβ42; [1]) [nM] | melting point [°C] | IC50 (Aβtotal; [1]) [nM] | IC50 (Aβ42; [2]) [nM] | IC50 (Aβtotal; [2]) [nM] |
| --- | --- | --- | --- | --- | --- |
| COc1ccccc1C1CCCn2nc(-c3cc4cc(C#N)ccc4[nH]3)nc21 (centres unmarked) [Compound 19, 2-[5,6,7,8-tetrahydro-8-(2-methoxyphenyl)[1,2,4]triazolo[1,5-a]pyridin-2-yl]-1H-indole-5-carbonitrile] | – | 139.6 | – | 661 | > 10000 |
| Cc1cn(-c2ccc3[nH]c(-c4nc5n(n4)CCOC5c4ccc(F)cc4C)cc3c2)cn1 (single isomer, unassigned) [Compound 109, 8-(4-fluoro-2-methylphenyl)-5,6-dihydro-2-[5-(4-methyl-1H-imidazol-1-yl)-1H-indol-2-yl]-8H-[1,2,4]triazolo[5,1-c][1,4]oxazine] | 537 | 278.9 | – | – | > 10000 |
| Cc1c(F)cccc1C1OCCn2nc(-c3cc4cc(C#N)ccc4[nH]3)nc21 (centres unmarked) [Compound 1, 2-[8-(3-fluoro-2-methylphenyl)-5,6-dihydro-8H-[1,2,4]triazolo[5,1-c][1,4]oxazin-2-yl]-1H-indole-5-carbonitrile] | – | 225.2 | – | 295 | > 10000 |
| Cc1cc(F)ccc1C1OCCn2cc(-c3cc4nc(-c5cnn(C)c5)ccc4[nH]3)nc21 (single isomer, unassigned) [Compound 101, 8-(4-fluoro-2-methylphenyl)-5,6-dihydro-2-[5-(1-methyl-1H-pyrazol-4-yl)-1H-pyrrolo[3,2-b]pyridin-2-yl]-8H-imidazo[2,1-c][1,4]oxazine] | 2190 | – | – | – | > 10000 |
| COCc1ccccc1C1CCCn2nc(-c3cc4c(OC)c(C#N)ccc4[nH]3)nc21 (centres unmarked) [Compound 91, 4-methoxy-2-[5,6,7,8-tetrahydro-8-[2-(methoxymethyl)phenyl][1,2,4]triazolo[1,5-a]pyridin-2-yl]-1H-indole-5-carbonitrile] | 1200 | – | > 10000 | – | – |
| Cc1ccccc1C1CCCn2nc(-c3cc4cc(C#N)ccc4[nH]3)nc21 (centres unmarked) [Compound 14, 2-[5,6,7,8-tetrahydro-8-(2-methylphenyl)[1,2,4]triazolo[1,5-a]pyridin-2-yl]-1H-indole-5-carbonitrile] | 2950 | – | > 10000 | – | – |
| Cc1cn(-c2cnc3[nH]c(-c4nc5n(n4)CCCC5c4ccc(F)cc4C)cc3c2)cn1 (single isomer, unassigned) [Compound 87, 8-(4-fluoro-2-methylphenyl)-5,6,7,8-tetrahydro-2-[5-(4-methyl-1H-imidazol-1-yl)-1H-pyrrolo[2,3-b]pyridin-2-yl]-[1,2,4]triazolo[1,5-a]pyridine] | 447 | – | > 10000 | – | – |
| Cc1ccccc1C1CCCn2nc(-c3cc4cc(C#N)ncc4[nH]3)nc21 (centres unmarked) [Compound 24, 2-[5,6,7,8-tetrahydro-8-(2-methylphenyl)[1,2,4]triazolo[1,5-a]pyridin-2-yl]-1H-pyrrolo[2,3-c]pyridine-5-carbonitrile] | – | – | – | 257 | > 10000 |
| COc1cc2[nH]c(-c3nc4n(n3)CCCC4c3ccccc3C(F)(F)F)cc2cc1C#N (centres unmarked) [Compound 28, 6-methoxy-2-[5,6,7,8-tetrahydro-8-[2-(trifluoromethyl)phenyl][1,2,4]triazolo[1,5-a]pyridin-2-yl]-1H-indole-5-carbonitrile] | – | – | – | 107 | > 10000 |
| Cc1cc(F)ccc1C1CCCn2cc(-c3cc4nc(C#N)ccc4[nH]3)nc21 (centres unmarked) [Compound 75, 2-[8-(4-fluoro-2-methylphenyl)-5,6,7,8-tetrahydroimidazo[1,2-a]pyridin-2-yl]-1H-pyrrolo[3,2-b]pyridine-5-carbonitrile] | – | – | – | 174 | > 10000 |
| Cc1cn(-c2ccc3[nH]c(-c4nc5n(n4)CCCC5c4ccc(F)cc4C)cc3n2)cn1 (centres unmarked) [Compound 66, 8-(4-fluoro-2-methylphenyl)-5,6,7,8-tetrahydro-2-[5-(4-methyl-1H-imidazol-1-yl)-1H-pyrrolo[3,2-b]pyridin-2-yl]-[1,2,4]triazolo[1,5-a]pyridine] | 447 | – | > 10000 | – | – |
| Cc1ccccc1C1CCCn2cc(-c3cc4cc(C#N)ccc4[nH]3)nc21 (centres unmarked) [Compound 15, 2-[5,6,7,8-tetrahydro-8-(2-methylphenyl)imidazo[1,2-a]pyridin-2-yl]-1H-indole-5-carbonitrile] | – | – | – | 89 | > 10000 |

Further lines, results first:

| IC50 (Aβ42; [1]) [nM] | melting point [°C] | IC50 (Aβtotal; [1]) [nM] | IC50 (Aβ42; [2]) [nM] | IC50 (Aβtotal; [2]) [nM] | SMILES |
| --- | --- | --- | --- | --- | --- |
| 7590 | 265.5 | > 10000 | – | – | COc1c(C#N)ccc2[nH]c(-c3nc4n(n3)CCOC4c3ccc(F)c(Cl)c3)cc12 (centres unmarked) [Compound 157, 2-[8-(3-chloro-4-fluorophenyl)-5,6-dihydro-8H-[1,2,4]triazolo[5,1-c][1,4]oxazin-2-yl]-4-methoxy-1H-indole-5-carbonitrile] |
| 2190 | 238.2 | > 10000 | – | – | COc1c(C#N)ccc2[nH]c(-c3nc4n(n3)CCOC4c3cccc(F)c3C)cc12 (centres unmarked) [Compound 150, 2-[8-(3-fluoro-2-methylphenyl)-5,6-dihydro-8H-[1,2,4]triazolo[5,1-c][1,4]oxazin-2-yl]-4-methoxy-1H-indole-5-carbonitrile] |
| 1480 | 257.4 | > 10000 | – | – | COc1c(C#N)ccc2[nH]c(-c3nc4n(n3)CCOC4c3ccc(F)cc3C)cc12 (centres unmarked) [Compound 115, 2-[8-(4-fluoro-2-methylphenyl)-5,6-dihydro-8H-[1,2,4]triazolo[5,1-c][1,4]oxazin-2-yl]-4-methoxy-1H-indole-5-carbonitrile] |
| 36 | – | – | – | > 10000 | COc1c(C#N)ccc2[nH]c(-c3cn4c(n3)C(c3cccc(C)c3F)OCC4)cc12 (single isomer, unassigned) [Compound 135, 2-[8-(2-fluoro-3-methylphenyl)-5,6-dihydro-8H-imidazo[2,1-c][1,4]oxazin-2-yl]-4-methoxy-1H-indole-5-carbonitrile] |
| 490 | – | > 10000 | – | – | COc1c(C#N)ccc2[nH]c(-c3cn4c(n3)C(c3cccc(F)c3C(F)(F)F)OCC4)cc12 (single isomer, unassigned) [Compound 132, 2-[8-[3-fluoro-2-(trifluoromethyl)phenyl]-5,6-dihydro-8H-imidazo[2,1-c][1,4]oxazin-2-yl]-4-methoxy-1H-indole-5-carbonitrile] |
| – | – | – | 2880 | > 10000 | COc1c(C#N)ccc2[nH]c(-c3cn4c(n3)COCC4(C)c3cc(C(F)(F)F)ccc3F)cc12 (centres unmarked) [Compound 183, 2-[5-[2-fluoro-5-(trifluoromethyl)phenyl]-5,6-dihydro-5-methyl-8H-imidazo[2,1-c][1,4]oxazin-2-yl]-4-methoxy-1H-indole-5-carbonitrile] |
| 110 | – | > 10000 | – | – | COCc1ccccc1C1OCCn2cc(-c3cc4c(OC)c(C#N)ccc4[nH]3)nc21 (centres unmarked) [Compound 145, 2-[5,6-dihydro-8-[2-(methoxymethyl)phenyl]-8H-imidazo[2,1-c][1,4]oxazin-2-yl]-4-methoxy-1H-indole-5-carbonitrile] |
| 55 | – | – | – | > 10000 | COc1c(C#N)ccc2[nH]c(-c3cn4c(n3)C(c3c(F)cccc3C(F)(F)F)OCC4)cc12 (centres unmarked) [Compound 126, 2-[8-[2-fluoro-6-(trifluoromethyl)phenyl]-5,6-dihydro-8H-imidazo[2,1-c][1,4]oxazin-2-yl]-4-methoxy-1H-indole-5-carbonitrile] |
| 54 | – | – | – | > 10000 | COc1c(C#N)ccc2[nH]c(-c3cn4c(n3)C(c3cc(F)ccc3C)OCC4)cc12 (centres unmarked) [Compound 151, 2-[8-(5-fluoro-2-methylphenyl)-5,6-dihydro-8H-imidazo[2,1-c][1,4]oxazin-2-yl]-4-methoxy-1H-indole-5-carbonitrile] |
| – | – | – | 55 | > 10000 | COc1c(C#N)ccc2[nH]c(-c3cn4c(n3)C(c3c(F)cccc3Cl)OCC4)cc12 (centres unmarked) [Compound 119, 2-[8-(2-chloro-6-fluorophenyl)-5,6-dihydro-8H-imidazo[2,1-c][1,4]oxazin-2-yl]-4-methoxy-1H-indole-5-carbonitrile] |
| 186 | – | – | – | > 10000 | COc1c(C#N)ccc2[nH]c(-c3cn4c(n3)C(c3ccc(F)c(Cl)c3)OCC4)cc12 (centres unmarked) [Compound 143, 2-[8-(3-chloro-4-fluorophenyl)-5,6-dihydro-8H-imidazo[2,1-c][1,4]oxazin-2-yl]-4-methoxy-1H-indole-5-carbonitrile] |
| – | – | – | 347 | > 10000 | Cc1cc(F)ccc1C1OCCn2nc(-c3cc4c(OC(C)C)c(C#N)ccc4[nH]3)nc21 (centres unmarked) [Compound 166, 2-[8-(4-fluoro-2-methylphenyl)-5,6-dihydro-8H-[1,2,4]triazolo[5,1-c][1,4]oxazin-2-yl]-4-(1-methylethoxy)-1H-indole-5-carbonitrile] |
| – | – | – | 40 | > 10000 | Cc1cc(-c2ccc3[nH]c(-c4nc5n(n4)CCOC5c4ccc(F)cc4C)cc3c2)ccn1 (centres unmarked) [Compound 108, 8-(4-fluoro-2-methylphenyl)-5,6-dihydro-2-[5-(2-methyl-4-pyridinyl)-1H-indol-2-yl]-8H-[1,2,4]triazolo[5,1-c][1,4]oxazine] |
| – | – | – | 2510 | > 10000 | Cc1cc(F)ccc1C1CCCn2nc(-c3nc4cc(-n5cncc5C)ccc4[nH]3)nc21 (centres unmarked) [Compound 177, 8-(4-fluoro-2-methylphenyl)-5,6,7,8-tetrahydro-2-[5-(5-methyl-1H-imidazol-1-yl)-1H-benzimidazol-2-yl]-[1,2,4]triazolo[1,5-a]pyridine] |
| 4360 | – | > 10000 | – | – | COc1c(C#N)ccc2[nH]c(-c3cn4c(n3)C(c3cc(C(F)(F)F)ccc3F)OCC4)cc12 (centres unmarked) [Compound 165, 2-[8-[2-fluoro-5-(trifluoromethyl)phenyl]-5,6-dihydro-8H-imidazo[2,1-c][1,4]oxazin-2-yl]-4-methoxy-1H-indole-5-carbonitrile] |
| > 10000 | – | > 10000 | – | – | Cc1cc(F)ccc1C1OCCn2nc(-c3cc4c(OC(C)C)c(C#N)ccc4[nH]3)nc21 (single isomer, unassigned) [Compound 172, 2-[8-(4-fluoro-2-methylphenyl)-5,6-dihydro-8H-[1,2,4]triazolo[5,1-c][1,4]oxazin-2-yl]-4-(1-methylethoxy)-1H-indole-5-carbonitrile] |
